Among the test systems are BT-549; NCI-H226; EKVX; TK-10; NCI-H460; T47D; CAKI-1; UACC-257; UACC-62; OVCAR-8; ACHN; OVCAR-5; SK-MEL-2; HCT-15; RPMI-8226; MDA-MB-435; SNB-19; MDA-MB-231; Hs-578T; HT-29.
Holding throughout (experiment): growth of human tumour cells (NCI), 48 h

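Step 1: Grow cells in 96-well plates. Step 2: Expose to compound for 48 hours at 5 concentrations. Step 3: Interpolate endpoints linearly; if unreached, use highest concentration. GI50: concentration for 50% inhibition of growth.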 Calls of active or inactive are those of the source. Cut-off read from the data, not from the text of the source: active = GI50 up to about 1.1 µM and inactive = higher. A value given as a limit tells only on which side of the number the result lay.

Regarding `CC1(C)C2CCC(N)(C2)C1O` (stereo not drawn), the GI50 in the test on BT-549, in the test on NCI-H226, in the test on EKVX, in the test with TK-10, in the test on NCI-H460 and in the test with T47D was > 100 µM (inactive) each time. Also, the GI50 in the test with CAKI-1, in the test on UACC-257, in the test with UACC-62, in the test with OVCAR-8, with ACHN and in the test on OVCAR-5 was > 100 µM (inactive) throughout. Besides, the GI50 in the test with SK-MEL-2 is > 100 µM (inactive); in the test on HCT-15, above 100 µM; in the test on RPMI-8226, > 100 µM (inactive); with MDA-MB-435, > 100 µM (inactive); in the test with SNB-19, > 100 µM (inactive).
In the case of `CC1=NN(c2cccc(Cl)c2)C2(C1=Cc1ccc(O)cc1)C(Cl)C(=O)N2c1nc2ccccc2s1` (stereo not drawn), the GI50 was 24.6 µM (inactive) in the test with MDA-MB-231; 27.2 µM (inactive) in the test on NCI-H226; 29.4 µM (inactive) in the test on EKVX; 37.7 µM (inactive) in the test with TK-10; 40.6 µM (inactive) in the test with Hs-578T; 24.9 µM (inactive) in the test on NCI-H460. Moreover, the GI50 with HT-29 was 21.7 µM (inactive); in the test with T47D it was 15.8 µM (inactive); with CAKI-1 it was 27.1 µM (inactive); in the test with UACC-257, 25.5 µM (inactive); in the test with OVCAR-8, 27 µM (inactive); in the test on ACHN it was 19.7 µM (inactive). The GI50 in the test on OVCAR-5 is 29.4 µM (inactive); with SK-MEL-2, 20.4 µM (inactive); in the test on HCT-15, 15.5 µM; in the test on RPMI-8226, 17.5 µM (inactive); with MDA-MB-435 it was 25.1 µM (inactive).
Consider `N#CC(C#N)=C/C=C/c1c(Cl)cccc1Cl`, for which the GI50 in the test on MDA-MB-231 is 1.85 µM (inactive); in the test on NCI-H226, 2.45 µM (inactive); in the test with EKVX, 3.33 µM (inactive); in the test on TK-10, 2.7 µM (inactive); in the test with Hs-578T it was 1.97 µM (inactive); in the test with NCI-H460 it was 1.87 µM (inactive). Further, the GI50 with HT-29 is 1.7 µM (inactive); in the test on T47D, 2.24 µM (inactive); in the test on CAKI-1, 1.93 µM (inactive); with UACC-257, 1.58 µM (inactive); in the test with UACC-62, 1.5 µM (inactive); with OVCAR-8 it was 1.53 µM (inactive). In addition, the GI50 was 1.6 µM (inactive) in the test on ACHN; 1.7 µM (inactive) in the test with SK-MEL-2; 1.91 µM in the test with HCT-15; 1.78 µM (inactive) in the test on RPMI-8226; 2.14 µM (inactive) in the test on MDA-MB-435; 3.78 µM (inactive) with SNB-19.
`O=C(/C=C1/Nc2ccc([N+](=O)[O-])cc2N/C1=C/C(=O)c1ccccc1)c1ccccc1`: the GI50 in the test on BT-549 was 18.5 µM (inactive); in the test with MDA-MB-231, 16.6 µM (inactive); with NCI-H226 it was 23.4 µM (inactive); in the test on EKVX, 30.8 µM (inactive); in the test on TK-10, 24.9 µM (inactive); with NCI-H460 it was 13.7 µM (inactive). The GI50 was 71.1 µM (inactive) in the test on HT-29; 18.3 µM (inactive) in the test with T47D; 26.7 µM (inactive) in the test on CAKI-1; > 100 µM (inactive) in the test with UACC-257; 12.6 µM (inactive) in the test with UACC-62; 16.8 µM (inactive) with OVCAR-8. Moreover, the GI50 in the test on ACHN is 39.8 µM (inactive); in the test on OVCAR-5, > 100 µM (inactive); in the test on SK-MEL-2, 0.385 µM (active); in the test with HCT-15, 11.5 µM; with MDA-MB-435, > 100 µM (inactive); in the test on SNB-19, 21.6 µM (inactive).
As for `Cc1ccc(C(=O)N/N=C(\N=N\c2ccc(C(=O)O)cc2)c2ccc(N(CCC#N)CCC#N)cc2C)cc1`, the GI50 is 83 µM (inactive) in the test with BT-549; > 100 µM (inactive) in the test with MDA-MB-231; > 100 µM (inactive) in the test with NCI-H226; > 100 µM (inactive) in the test with EKVX; > 100 µM (inactive) with TK-10; > 100 µM (inactive) with NCI-H460. The GI50 is > 100 µM (inactive) with HT-29; 70.5 µM (inactive) in the test on T47D; > 100 µM (inactive) in the test on CAKI-1; > 100 µM (inactive) in the test with UACC-257; > 100 µM (inactive) with OVCAR-8; > 100 µM (inactive) with ACHN. Also, the GI50 with OVCAR-5 is > 100 µM (inactive); in the test with SK-MEL-2 it was > 100 µM (inactive); with HCT-15 it was above 100 µM; in the test on RPMI-8226 it was > 100 µM (inactive); in the test with MDA-MB-435, > 100 µM (inactive); in the test with SNB-19, > 100 µM (inactive).
Take `CCCCCCCCCc1cc(=O)c2c(O)cc(O)cc2o1`: the GI50 with MDA-MB-231 is > 100 µM (inactive); in the test with NCI-H226 it was 17.8 µM (inactive); in the test with EKVX, 18.7 µM (inactive); in the test with TK-10 it was 18.8 µM (inactive); with Hs-578T, 16.7 µM (inactive); with NCI-H460 it was 22.6 µM (inactive). Also, the GI50 in the test with HT-29 is 19.1 µM (inactive); in the test on T47D it was 22.2 µM (inactive); with CAKI-1, > 100 µM (inactive); in the test with UACC-257, 19.7 µM (inactive); in the test with OVCAR-8, 20.2 µM (inactive); with ACHN, 19 µM (inactive). Also, the GI50 in the test with OVCAR-5 is 16.6 µM (inactive); in the test on SK-MEL-2 it was 18.9 µM (inactive); in the test on HCT-15 it was 18.8 µM; in the test with RPMI-8226 it was 5.86 µM (inactive); in the test on MDA-MB-435, 18.7 µM (inactive); with SNB-19 it was 18.9 µM (inactive).
In the case of `OCCN(CCO)c1ccc2c(C(F)(F)F)cc(C(F)(F)F)nc2n1`, the GI50 in the test on MDA-MB-231, with NCI-H226, in the test with EKVX, in the test on TK-10, with Hs-578T and in the test on NCI-H460 was > 100 µM (inactive) each time. Besides, the GI50 with HT-29 was > 100 µM (inactive); in the test with T47D, > 100 µM (inactive); in the test with CAKI-1, > 100 µM (inactive); in the test on UACC-257 it was > 100 µM (inactive); in the test with UACC-62, > 100 µM (inactive); in the test with OVCAR-8, > 77.6 µM (inactive). For the same molecule, the GI50 in the test on ACHN is > 100 µM (inactive); with OVCAR-5, > 100 µM (inactive); with SK-MEL-2, > 100 µM (inactive); with HCT-15 it was above 86.5 µM; in the test with RPMI-8226, > 100 µM (inactive); in the test on MDA-MB-435 it was > 100 µM (inactive). In the test on SNB-19, the GI50 is > 100 µM (inactive).
Consider `CC(C)CC(=O)NC(C(=O)NC(C(=O)NC(CC(C)C)C(O)CC(=O)NC(C)C(=O)NC(CC(C)C)C(O)CC(=O)O)C(C)C)C(C)C` (stereo not drawn), for which the GI50 in the test with BT-549 was 22.1 µM (inactive); in the test with MDA-MB-231, > 100 µM (inactive); in the test on NCI-H226, 0.436 µM (active); in the test on EKVX it was > 100 µM (inactive); in the test with TK-10, > 100 µM (inactive); in the test with NCI-H460 it was > 100 µM (inactive). Moreover, the GI50 with HT-29, in the test with CAKI-1, with UACC-257, in the test on UACC-62, in the test on OVCAR-8 and in the test with ACHN was > 100 µM (inactive) each time. For the same molecule, the GI50 was > 100 µM (inactive) in the test with OVCAR-5; > 100 µM (inactive) with SK-MEL-2; above 100 µM with HCT-15; > 100 µM (inactive) with RPMI-8226; > 100 µM (inactive) with MDA-MB-435; > 100 µM (inactive) in the test with SNB-19.

(Values after ChEMBL document CHEMBL1201862, “PubChem BioAssay data set” (2004).)
